O=C(Nc1ccccc1)Nc1ccnc(Cl)c1
solubility (mole fraction)
Conditions | 278.15 K | 283.15 K | 288.15 K | 293.15 K | 298.15 K | 303.15 K | 308.15 K | 313.15 K | 318.15 K | 323.15 K
in acetone | 0.03 | 0.0317 | 0.0346 | 0.0384 | 0.042 | 0.0456 | 0.0488 | 0.0544 | 0.0606 | 0.0672
in ethanol | 0.0171 | 0.0193 | 0.0218 | 0.0248 | 0.0282 | 0.0325 | 0.0373 | 0.043 | 0.0495 | 0.0563
in methanol | 0.0119 | 0.0135 | 0.0155 | 0.0183 | 0.0219 | 0.0257 | 0.0305 | 0.0366 | 0.0447 | 0.0541
in n-propanol | 0.0171 | 0.0198 | 0.0221 | 0.0257 | 0.0295 | 0.034 | 0.0385 | 0.0453 | 0.0515 | 0.0582

— BigSolDB 2.1
